# What was measured:
# SIRT3 = target: T1, SIRT3 (Homo sapiens, UniProt Q9NTG7); experiment: SPR binding to immobilized SIRT3; conditions: 25 °C, PBST pH 7.4
# T1 construct: purchased Enzo Life Sciences BML-AK557-0001
# T1 sequence (Q9NTG7 1-399): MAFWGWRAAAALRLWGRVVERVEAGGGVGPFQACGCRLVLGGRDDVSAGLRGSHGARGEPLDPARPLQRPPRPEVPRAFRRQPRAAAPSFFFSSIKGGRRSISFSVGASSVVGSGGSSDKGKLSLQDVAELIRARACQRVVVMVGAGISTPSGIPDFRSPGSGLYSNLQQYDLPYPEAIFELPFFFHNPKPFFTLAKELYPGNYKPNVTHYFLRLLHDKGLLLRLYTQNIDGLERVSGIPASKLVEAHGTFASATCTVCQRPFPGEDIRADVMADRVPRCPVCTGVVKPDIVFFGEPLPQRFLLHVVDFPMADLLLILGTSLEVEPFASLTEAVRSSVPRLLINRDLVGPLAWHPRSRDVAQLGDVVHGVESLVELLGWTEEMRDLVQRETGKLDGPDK
# Method: (§1) The affinity of SKLB-11A for SIRT1, SIRT2, SIRT3, SIRT5, and SIRT6 was determined using a Reichert 4SPR system (Reichert Technologies, Depew, NY, USA). Proteins at 200 μg/mL were immobilized on a dextran-coated sensor chip (13206066) until reaching ≥12,000 response units (RUs). A dual-flow channel setup was used, reserving one channel for blank controls. SKLB-11A was introduced at varying concentrations for binding and subsequent dissociation kinetic analysis. Data acquisition was at 25 °C utilizing a PBST running buffer (pH 7.4). The equilibrium dissociation constant (K d) was computed from steady-state affinity measurements using TraceDrawer software.
# SIRT1 [1] = target: T2, SIRT1 (Homo sapiens, UniProt Q96EB6); experiment: SPR binding to SIRT1
# T2 sequence (Q96EB6 1-747): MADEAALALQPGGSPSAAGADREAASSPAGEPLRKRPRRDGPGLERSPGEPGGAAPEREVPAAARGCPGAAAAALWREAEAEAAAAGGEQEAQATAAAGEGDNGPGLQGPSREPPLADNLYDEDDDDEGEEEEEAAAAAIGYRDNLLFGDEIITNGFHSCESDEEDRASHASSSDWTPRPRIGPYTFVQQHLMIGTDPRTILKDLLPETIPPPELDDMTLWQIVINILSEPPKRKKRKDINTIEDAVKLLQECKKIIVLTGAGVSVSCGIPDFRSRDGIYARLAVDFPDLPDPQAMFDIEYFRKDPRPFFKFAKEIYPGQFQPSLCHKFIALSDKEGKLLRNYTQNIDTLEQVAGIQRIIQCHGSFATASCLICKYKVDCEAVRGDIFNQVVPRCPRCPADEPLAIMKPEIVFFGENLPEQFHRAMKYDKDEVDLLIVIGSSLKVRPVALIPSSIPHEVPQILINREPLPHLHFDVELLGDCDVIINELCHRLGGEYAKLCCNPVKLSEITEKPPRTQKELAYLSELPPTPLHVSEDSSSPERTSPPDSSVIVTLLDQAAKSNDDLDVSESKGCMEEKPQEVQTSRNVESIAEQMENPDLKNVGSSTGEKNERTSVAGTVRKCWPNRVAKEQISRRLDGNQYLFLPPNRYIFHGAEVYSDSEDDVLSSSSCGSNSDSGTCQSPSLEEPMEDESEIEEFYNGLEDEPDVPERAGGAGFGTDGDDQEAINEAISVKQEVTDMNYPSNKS
# Method: as §1
# SIRT5 = target: T3, SIRT5 (Homo sapiens, UniProt Q9NXA8); experiment: SPR binding to SIRT5
# T3 sequence (Q9NXA8 37-310): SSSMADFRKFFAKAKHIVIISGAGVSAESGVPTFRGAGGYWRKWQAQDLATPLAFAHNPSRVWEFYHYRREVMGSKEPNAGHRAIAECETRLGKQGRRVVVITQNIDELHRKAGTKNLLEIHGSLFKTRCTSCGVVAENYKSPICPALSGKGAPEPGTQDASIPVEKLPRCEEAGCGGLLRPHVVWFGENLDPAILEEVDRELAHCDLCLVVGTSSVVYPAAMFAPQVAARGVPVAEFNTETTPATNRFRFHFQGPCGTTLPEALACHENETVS
# Method: as §1
# SIRT1 [2] = target: T4, SIRT1 (Rattus norvegicus, UniProt A0A0G2JZ79); experiment: CETSA of SIRT1 in H9c2 cells; type: cell-based
# T4 construct: endogenous in cells; host or cells: H9c2
# T4 sequence (A0A0G2JZ79 1-741): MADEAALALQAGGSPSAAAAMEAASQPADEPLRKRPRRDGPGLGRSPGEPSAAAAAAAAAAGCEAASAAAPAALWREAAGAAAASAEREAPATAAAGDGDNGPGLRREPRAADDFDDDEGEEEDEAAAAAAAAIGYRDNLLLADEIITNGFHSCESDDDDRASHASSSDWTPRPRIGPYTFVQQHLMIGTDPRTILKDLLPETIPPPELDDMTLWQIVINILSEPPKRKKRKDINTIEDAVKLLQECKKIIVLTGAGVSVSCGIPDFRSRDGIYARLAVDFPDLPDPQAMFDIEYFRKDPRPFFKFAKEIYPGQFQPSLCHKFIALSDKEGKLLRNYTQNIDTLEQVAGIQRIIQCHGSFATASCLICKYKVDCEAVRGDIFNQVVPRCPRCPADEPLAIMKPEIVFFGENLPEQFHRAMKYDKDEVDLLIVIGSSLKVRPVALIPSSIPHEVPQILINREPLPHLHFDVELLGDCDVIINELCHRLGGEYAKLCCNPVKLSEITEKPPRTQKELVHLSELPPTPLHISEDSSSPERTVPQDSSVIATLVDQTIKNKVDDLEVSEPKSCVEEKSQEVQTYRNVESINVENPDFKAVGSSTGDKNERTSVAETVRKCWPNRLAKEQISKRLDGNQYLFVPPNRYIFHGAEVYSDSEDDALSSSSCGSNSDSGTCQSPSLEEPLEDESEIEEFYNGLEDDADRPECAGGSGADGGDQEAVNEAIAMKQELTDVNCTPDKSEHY
# H9c2 cells = experiment: Intracellular ROS (DCFH-DA) and mitochondrial membrane potential (JC-1) in Dox-treated H9c2 cells; type: cell-based
# Method: Mitochondrial membrane potential and reactive oxygen species (ROS) levels within cells were assessed using the JC-1 Mitochondrial Membrane Potential Assay Kit (Beyotime, Beijing, China) and the DCFH-DA probe (Beyotime, Shanghai, China), respectively, following the manufacturer’s guidelines. , For mitochondrial membrane potential quantification, cells were treated with JC-1 solution and incubated for 20 min at 37 °C in the dark. ROS quantification involved a 25 min incubation at 37 °C in the dark with DCFH-DA solution. Postincubation, cells underwent three gentle washes with prewarmed buffer. Visualization was achieved using a Nikon (Ni-E) fluorescence microscope and quantified by flow cytometry (BD FACS Calibur).
smiles,measurement,setting,value
"COC(=O)c1c(N)n(Cc2ccc(F)cc2)c2nc3ccccc3nc12 [SKLB-11A, Methyl 2-amino-1-(4-fluorobenzyl)-1H-pyrrolo[2,3-b]quinoxaline-3-carboxylate]",Kd,SIRT3,4.7 µM
same,Kd,SIRT1 [1]; SPR,> 200 µM
same,affinity for SIRT1 lower than its affinity for SIRT3,SIRT1 [1]; SPR Kd ratio,approximately 40 times
same,binding to SIRT5,SIRT5,no binding
same,thermal stability of SIRT1 (CETSA),SIRT1 [2],little effect on the thermal stability
same,Dox-induced dissipation of mitochondrial membrane potential (MMP),H9c2 cells; JC-1,notably preserved
same,Dox-induced increase of ROS levels,"H9c2 cells; pretreatment, DCFH-DA",effectively suppressed this increase
